In ChEMBL document CHEMBL4507280 (2021):

What was measured:
[1] = biological target: Mast/stem cell growth factor receptor Kit (Homo sapiens) (UniProt P10721); conditions: Compound concentration 1000.0 nM
[2] = test system: Epidermal growth factor receptor (Homo sapiens), P00533 [L861Q]; conditions: Compound concentration 1000.0 nM
[3] = biological target: Serine/threonine-protein kinase 38-like (Homo sapiens) (UniProt Q9Y2H1); conditions: Compound concentration 1000.0 nM
[4] = biological target: Activated CDC42 kinase 1 (Homo sapiens) (UniProt Q07912); conditions: Compound concentration 1000.0 nM
[5] = biological target: Cyclin-dependent kinase 19 (Homo sapiens) (UniProt Q9BWU1); conditions: Compound concentration 1000.0 nM
[6] = biological target: Phosphorylase b kinase regulatory subunit alpha, liver isoform (Homo sapiens) (UniProt P46019); conditions: Compound concentration 1000.0 nM
[7] = biological target: Tyrosine-protein kinase Lyn (Homo sapiens) (UniProt P07948); conditions: Compound concentration 1000.0 nM
[8] = biological target: Serine/threonine-protein kinase WNK4 (Homo sapiens) (UniProt Q96J92); conditions: Compound concentration 1000.0 nM
[9] = biological target: Ribosomal protein S6 kinase alpha-5 (Homo sapiens) (UniProt O75582); conditions: Compound concentration 1000.0 nM
[10] = biological target: Serine/threonine-protein kinase 24 (Homo sapiens) (UniProt Q9Y6E0); conditions: Compound concentration 1000.0 nM
[11] = biological target: Phosphatidylinositol 4-phosphate 3-kinase C2 domain-containing subunit beta (Homo sapiens) (UniProt O00750); conditions: Compound concentration 1000.0 nM
[12] = biological target: TRAF2 and NCK-interacting protein kinase (Homo sapiens) (UniProt Q9UKE5); conditions: Compound concentration 1000.0 nM
[13] = biological target: Cyclin-dependent kinase 15 (Homo sapiens) (UniProt Q96Q40); conditions: Compound concentration 1000.0 nM
[14] = biological target: Serine/threonine-protein kinase MRCK gamma (Homo sapiens) (UniProt Q6DT37); conditions: Compound concentration 1000.0 nM
[15] = biological target: Platelet-derived growth factor receptor alpha (Homo sapiens) (UniProt P16234); conditions: Compound concentration 1000.0 nM
[16] = biological target: Tyrosine-protein kinase Fes/Fps (Homo sapiens) (UniProt P07332); conditions: Compound concentration 1000.0 nM
[17] = biological target: Ephrin type-B receptor 2 (Homo sapiens) (UniProt P29323); conditions: Compound concentration 1000.0 nM
[18] = test system: Mast/stem cell growth factor receptor Kit (Homo sapiens), P10721 [D816V]; conditions: Compound concentration 1000.0 nM
[19] = test system: Tyrosine-protein kinase ABL1 (Homo sapiens), P00519 [F317L]; conditions: Compound concentration 1000.0 nM
[20] = biological target: D(2) dopamine receptor (Homo sapiens) (UniProt P14416); conditions: Compound concentration 10.0 uM
[21] = biological target: Serine/threonine-protein kinase TAO1 (Homo sapiens) (UniProt Q7L7X3); conditions: Compound concentration 1000.0 nM
[22] = biological target: Inhibitor of nuclear factor kappa-B kinase subunit alpha (Homo sapiens) (UniProt O15111); conditions: Compound concentration 1000.0 nM
[23] = biological target: Serine/threonine-protein kinase MARK1 (Homo sapiens) (UniProt Q9P0L2); conditions: Compound concentration 1000.0 nM
[24] = test system: Epidermal growth factor receptor (Homo sapiens), P00533 [UNDEFINED MUTATION]; conditions: Compound concentration 1000.0 nM
[25] = biological target: Beta-1 adrenergic receptor (Homo sapiens) (UniProt P08588); conditions: Compound concentration 10.0 uM
[26] = biological target: Histamine H1 receptor (Homo sapiens) (UniProt P35367); conditions: Compound concentration 10.0 uM
[27] = biological target: Ribosomal protein S6 kinase alpha-4 (Homo sapiens) (UniProt O75676); conditions: Compound concentration 1000.0 nM
[28] = biological target: Ephrin type-A receptor 4 (Homo sapiens) (UniProt P54764); conditions: Compound concentration 1000.0 nM
[29] = biological target: Tyrosine-protein kinase Fyn (Homo sapiens) (UniProt P06241); conditions: Compound concentration 1000.0 nM
[30] = biological target: Homeodomain-interacting protein kinase 2 (Homo sapiens) (UniProt Q9H2X6); conditions: Compound concentration 1000.0 nM
[31] = biological target: Serine/threonine-protein kinase 32C (Homo sapiens) (UniProt Q86UX6); conditions: Compound concentration 1000.0 nM
[32] = biological target: Serine/threonine-protein kinase 36 (Homo sapiens) (UniProt Q9NRP7); conditions: Compound concentration 1000.0 nM
[33] = biological target: Mitogen-activated protein kinase 4 (Homo sapiens) (UniProt P31152); conditions: Compound concentration 1000.0 nM
[34] = biological target: Dual specificity tyrosine-phosphorylation-regulated kinase 2 (Homo sapiens) (UniProt Q92630); conditions: Compound concentration 1000.0 nM
[35] = biological target: Non-receptor tyrosine-protein kinase TYK2 (Homo sapiens) (UniProt P29597); conditions: Compound concentration 1000.0 nM
[36] = biological target: Serine/threonine-protein kinase 38 (Homo sapiens) (UniProt Q15208); conditions: Compound concentration 1000.0 nM
[37] = biological target: GABA-A receptor; anion channel (Rattus norvegicus) (UniProt O09028+P15431+P18506+P18508+P19969+P20236+P23574+P23576+P28471+P28473+P30191+P62813+P63079+P63138+Q91ZM7+Q9ES14); conditions: Compound concentration 10.0 uM
[38] = biological target: Dual specificity tyrosine-phosphorylation-regulated kinase 1B (Homo sapiens) (UniProt Q9Y463); conditions: Compound concentration 1000.0 nM
[39] = biological target: Serine/threonine-protein kinase MAK (Homo sapiens) (UniProt P20794); conditions: Compound concentration 1000.0 nM
[40] = biological target: NT-3 growth factor receptor (Homo sapiens) (UniProt Q16288); conditions: Compound concentration 1000.0 nM
[41] = biological target: 5-hydroxytryptamine receptor 1A (Homo sapiens) (UniProt P08908); conditions: Compound concentration 10.0 uM
[42] = biological target: D(4) dopamine receptor (Homo sapiens) (UniProt P21917); conditions: Compound concentration 10.0 uM
[43] = biological target: Ribosomal protein S6 kinase alpha-4 (Homo sapiens) (UniProt O75676); conditions: Compound concentration 1000.0 nM; remark: listed apart in the source
[44] = biological target: Dual specificity mitogen-activated protein kinase kinase 7 (Homo sapiens) (UniProt O14733); conditions: Compound concentration 1000.0 nM
Dual specificity mitogen-activated protein kinase kinase 7 (Homo sapiens), sequence (O14733 whole entry): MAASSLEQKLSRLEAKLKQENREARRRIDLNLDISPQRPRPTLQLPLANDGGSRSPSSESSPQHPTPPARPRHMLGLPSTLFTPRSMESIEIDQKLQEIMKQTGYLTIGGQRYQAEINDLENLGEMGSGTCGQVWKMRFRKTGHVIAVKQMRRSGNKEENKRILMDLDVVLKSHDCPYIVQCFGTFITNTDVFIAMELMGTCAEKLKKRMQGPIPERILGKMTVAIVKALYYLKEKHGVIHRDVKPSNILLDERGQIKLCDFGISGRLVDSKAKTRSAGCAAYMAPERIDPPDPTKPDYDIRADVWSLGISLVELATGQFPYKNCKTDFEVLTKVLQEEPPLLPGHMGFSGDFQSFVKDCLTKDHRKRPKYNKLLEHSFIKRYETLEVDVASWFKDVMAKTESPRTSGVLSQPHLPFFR

Ribosomal protein S6 kinase alpha-4 (Homo sapiens), sequence (O75676 whole entry, looked up): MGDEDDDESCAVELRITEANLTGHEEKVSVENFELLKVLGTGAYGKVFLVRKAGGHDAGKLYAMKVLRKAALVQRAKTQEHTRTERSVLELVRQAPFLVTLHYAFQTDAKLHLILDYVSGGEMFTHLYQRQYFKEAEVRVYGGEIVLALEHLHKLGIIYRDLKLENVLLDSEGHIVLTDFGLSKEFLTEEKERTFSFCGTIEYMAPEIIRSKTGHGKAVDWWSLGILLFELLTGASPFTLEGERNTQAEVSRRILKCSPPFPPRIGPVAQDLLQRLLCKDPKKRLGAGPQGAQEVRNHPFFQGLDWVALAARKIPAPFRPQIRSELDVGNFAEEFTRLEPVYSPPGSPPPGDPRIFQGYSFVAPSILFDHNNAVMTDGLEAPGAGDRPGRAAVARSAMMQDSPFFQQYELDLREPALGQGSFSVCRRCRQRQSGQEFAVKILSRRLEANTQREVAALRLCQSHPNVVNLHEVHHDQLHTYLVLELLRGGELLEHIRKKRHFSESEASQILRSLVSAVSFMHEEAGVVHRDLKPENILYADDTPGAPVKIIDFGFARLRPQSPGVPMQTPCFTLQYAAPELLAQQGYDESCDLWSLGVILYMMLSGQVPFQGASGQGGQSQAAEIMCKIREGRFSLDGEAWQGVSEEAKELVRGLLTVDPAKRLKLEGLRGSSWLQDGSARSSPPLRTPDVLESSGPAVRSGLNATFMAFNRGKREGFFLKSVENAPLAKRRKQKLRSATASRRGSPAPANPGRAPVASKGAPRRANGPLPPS
Tyrosine-protein kinase Lyn (Homo sapiens), sequence (P07948 2-512 limits assumed): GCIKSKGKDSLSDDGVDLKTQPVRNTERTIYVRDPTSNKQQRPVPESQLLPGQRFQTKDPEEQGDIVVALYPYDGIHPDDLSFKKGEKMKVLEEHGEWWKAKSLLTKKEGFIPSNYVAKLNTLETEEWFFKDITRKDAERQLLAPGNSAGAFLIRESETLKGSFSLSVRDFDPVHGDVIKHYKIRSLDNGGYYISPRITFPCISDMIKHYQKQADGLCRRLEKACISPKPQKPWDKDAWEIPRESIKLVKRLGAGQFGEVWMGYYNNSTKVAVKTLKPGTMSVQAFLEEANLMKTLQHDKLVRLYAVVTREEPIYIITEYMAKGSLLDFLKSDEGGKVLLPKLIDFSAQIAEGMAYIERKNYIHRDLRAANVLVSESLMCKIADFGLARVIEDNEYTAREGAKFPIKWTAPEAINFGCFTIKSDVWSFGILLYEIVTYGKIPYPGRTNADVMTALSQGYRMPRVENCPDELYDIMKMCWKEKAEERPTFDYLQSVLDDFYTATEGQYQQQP
Tyrosine-protein kinase ABL1 (Homo sapiens), P00519 [F317L], sequence (P00519 whole entry F317L): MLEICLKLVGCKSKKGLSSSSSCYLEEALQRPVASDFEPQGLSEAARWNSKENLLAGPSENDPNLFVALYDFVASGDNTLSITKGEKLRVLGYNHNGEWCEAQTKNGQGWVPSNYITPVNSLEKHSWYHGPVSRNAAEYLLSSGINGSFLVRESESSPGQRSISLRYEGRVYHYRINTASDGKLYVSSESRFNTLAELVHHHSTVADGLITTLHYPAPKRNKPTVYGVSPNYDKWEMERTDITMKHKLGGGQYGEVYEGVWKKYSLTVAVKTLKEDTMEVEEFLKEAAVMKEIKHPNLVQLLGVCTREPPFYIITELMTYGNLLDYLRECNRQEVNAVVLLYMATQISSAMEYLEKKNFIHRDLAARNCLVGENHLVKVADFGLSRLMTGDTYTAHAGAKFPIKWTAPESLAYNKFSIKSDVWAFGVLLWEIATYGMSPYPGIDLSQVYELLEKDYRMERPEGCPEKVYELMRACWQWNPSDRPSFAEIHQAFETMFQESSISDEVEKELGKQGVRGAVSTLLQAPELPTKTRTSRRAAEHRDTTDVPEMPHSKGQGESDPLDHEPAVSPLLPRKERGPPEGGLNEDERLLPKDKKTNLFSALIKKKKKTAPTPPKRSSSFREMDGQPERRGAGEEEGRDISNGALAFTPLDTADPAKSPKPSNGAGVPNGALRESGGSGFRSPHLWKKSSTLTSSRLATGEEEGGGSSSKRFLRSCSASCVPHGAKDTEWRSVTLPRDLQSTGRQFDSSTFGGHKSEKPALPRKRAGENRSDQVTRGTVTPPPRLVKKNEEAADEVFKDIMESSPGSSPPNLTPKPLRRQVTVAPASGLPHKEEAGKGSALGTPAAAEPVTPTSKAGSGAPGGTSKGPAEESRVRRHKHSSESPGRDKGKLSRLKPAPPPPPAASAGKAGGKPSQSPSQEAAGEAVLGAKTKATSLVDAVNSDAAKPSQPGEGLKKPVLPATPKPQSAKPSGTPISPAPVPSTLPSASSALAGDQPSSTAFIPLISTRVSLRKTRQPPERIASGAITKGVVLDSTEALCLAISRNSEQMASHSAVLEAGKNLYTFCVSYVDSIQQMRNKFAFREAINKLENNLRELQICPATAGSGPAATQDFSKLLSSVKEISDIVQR
Non-receptor tyrosine-protein kinase TYK2 (Homo sapiens), sequence (P29597 whole entry): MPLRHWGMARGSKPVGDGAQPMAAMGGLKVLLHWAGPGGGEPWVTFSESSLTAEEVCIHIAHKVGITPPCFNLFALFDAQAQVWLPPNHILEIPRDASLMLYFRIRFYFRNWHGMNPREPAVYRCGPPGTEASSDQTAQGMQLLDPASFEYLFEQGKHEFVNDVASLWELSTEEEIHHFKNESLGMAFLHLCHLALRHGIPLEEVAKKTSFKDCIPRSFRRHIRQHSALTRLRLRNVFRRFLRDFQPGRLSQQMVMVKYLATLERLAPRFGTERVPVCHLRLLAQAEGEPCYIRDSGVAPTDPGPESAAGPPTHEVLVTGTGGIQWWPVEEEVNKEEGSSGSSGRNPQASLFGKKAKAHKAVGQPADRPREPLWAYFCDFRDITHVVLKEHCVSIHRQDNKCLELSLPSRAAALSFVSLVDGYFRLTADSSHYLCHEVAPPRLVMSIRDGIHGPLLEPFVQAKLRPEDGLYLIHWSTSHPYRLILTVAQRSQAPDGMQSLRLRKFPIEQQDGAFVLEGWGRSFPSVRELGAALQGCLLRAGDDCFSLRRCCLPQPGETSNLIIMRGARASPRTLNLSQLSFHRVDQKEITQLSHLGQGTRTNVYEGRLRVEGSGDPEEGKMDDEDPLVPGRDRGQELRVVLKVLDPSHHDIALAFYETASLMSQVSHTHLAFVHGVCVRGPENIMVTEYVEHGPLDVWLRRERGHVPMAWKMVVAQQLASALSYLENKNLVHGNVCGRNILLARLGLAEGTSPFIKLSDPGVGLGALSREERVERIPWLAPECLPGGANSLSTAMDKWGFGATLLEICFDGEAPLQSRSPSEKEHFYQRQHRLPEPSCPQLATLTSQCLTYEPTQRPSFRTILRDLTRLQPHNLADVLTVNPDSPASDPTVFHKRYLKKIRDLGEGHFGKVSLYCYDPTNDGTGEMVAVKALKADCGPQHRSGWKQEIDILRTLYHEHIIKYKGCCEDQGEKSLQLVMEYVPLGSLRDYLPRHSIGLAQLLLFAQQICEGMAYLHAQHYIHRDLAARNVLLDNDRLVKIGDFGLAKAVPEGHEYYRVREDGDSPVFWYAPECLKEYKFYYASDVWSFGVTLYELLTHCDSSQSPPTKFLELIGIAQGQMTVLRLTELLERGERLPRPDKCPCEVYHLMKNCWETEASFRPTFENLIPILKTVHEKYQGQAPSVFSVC
Ribosomal protein S6 kinase alpha-5 (Homo sapiens), sequence (O75582 whole entry, looked up): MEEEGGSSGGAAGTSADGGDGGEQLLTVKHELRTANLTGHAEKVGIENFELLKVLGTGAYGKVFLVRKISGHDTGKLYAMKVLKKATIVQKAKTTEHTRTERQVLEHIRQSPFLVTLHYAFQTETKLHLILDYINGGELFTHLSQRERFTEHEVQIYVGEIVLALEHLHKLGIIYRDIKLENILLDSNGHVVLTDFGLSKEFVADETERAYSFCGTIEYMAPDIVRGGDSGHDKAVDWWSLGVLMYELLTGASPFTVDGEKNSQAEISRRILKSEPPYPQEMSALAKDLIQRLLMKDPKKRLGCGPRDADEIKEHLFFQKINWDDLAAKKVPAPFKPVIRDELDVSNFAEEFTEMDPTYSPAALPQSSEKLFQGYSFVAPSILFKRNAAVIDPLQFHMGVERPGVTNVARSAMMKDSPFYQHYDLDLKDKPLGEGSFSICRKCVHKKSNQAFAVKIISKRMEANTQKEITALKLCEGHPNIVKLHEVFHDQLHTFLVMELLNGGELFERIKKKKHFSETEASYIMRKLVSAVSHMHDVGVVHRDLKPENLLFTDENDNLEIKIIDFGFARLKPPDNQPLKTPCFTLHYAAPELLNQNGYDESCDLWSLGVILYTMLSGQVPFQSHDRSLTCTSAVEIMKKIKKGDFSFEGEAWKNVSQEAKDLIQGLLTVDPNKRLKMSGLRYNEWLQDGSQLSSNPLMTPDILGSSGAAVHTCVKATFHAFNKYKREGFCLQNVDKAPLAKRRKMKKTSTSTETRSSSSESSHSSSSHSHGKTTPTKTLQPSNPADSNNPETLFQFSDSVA

## CCC(=O)N[C@H]1CC[C@@H](C(=O)N(C)c2ccc(-c3nc4ccccc4o3)cc2)C1 [BI 99179]
[1]
  residual activity: 94%
[2]
  residual activity: 100%
[3]
  residual activity: 79%
[4]
  residual activity: 84%
[5]
  residual activity: 100%
[6]
  residual activity: 100%
[7]
  residual activity: 100%
[8]
  residual activity: 100%
[9]
  residual activity: 68%
[10]
  residual activity: 95%
[11]
  residual activity: 93%
[12]
  residual activity: 100%
[13]
  residual activity: 89%
[14]
  residual activity: 91%
[15]
  residual activity: 85%
[16]
  residual activity: 73%
[17]
  residual activity: 100%
[18]
  residual activity: 86%
[19]
  residual activity: 86%
[20]
  inhibition: 14.3%
[21]
  residual activity: 100%
[22]
  residual activity: 100%
[23]
  residual activity: 100%
[24]
  residual activity: 79%
[25]
  inhibition: -4.07%
[26]
  inhibition: 20.9%
[27]
  residual activity: 79%
[28]
  residual activity: 79%
[29]
  residual activity: 100%
[30]
  residual activity: 79%
[31]
  residual activity: 94%
[32]
  residual activity: 100%
[33]
  residual activity: 100%
[34]
  residual activity: 87%
[35]
  residual activity: 95%
[36]
  residual activity: 77%
[37]
  inhibition: 23.2%
[38]
  residual activity: 100%
[39]
  residual activity: 85%
[40]
  residual activity: 32%
[41]
  inhibition: 19.5%
[42]
  inhibition: 11.2%
[43]
  residual activity: 100%
[44]
  residual activity: 82%

## CCC(=O)N[C@@H]1CC[C@H](C(=O)N(C)c2ccc(-c3nc4ccccc4o3)cc2)C1 [BI 99990]
[1]
  residual activity: 100%
[2]
  residual activity: 95%
[3]
  residual activity: 100%
[4]
  residual activity: 100%
[5]
  residual activity: 82%
[6]
  residual activity: 100%
[7]
  residual activity: 92%
[8]
  residual activity: 100%
[9]
  residual activity: 97%
[10]
  residual activity: 100%
[11]
  residual activity: 70%
[12]
  residual activity: 100%
[13]
  residual activity: 100%
[14]
  residual activity: 100%
[15]
  residual activity: 86%
[16]
  residual activity: 96%
[17]
  residual activity: 82%
[18]
  residual activity: 89%
[19]
  residual activity: 92%
[20]
  inhibition: 18.6%
[21]
  residual activity: 97%
[22]
  residual activity: 100%
[23]
  residual activity: 86%
[24]
  residual activity: 75%
[25]
  inhibition: -4.55%
[26]
  inhibition: 18.6%
[27]
  residual activity: 100%
[28]
  residual activity: 100%
[29]
  residual activity: 85%
[30]
  residual activity: 100%
[31]
  residual activity: 73%
[32]
  residual activity: 82%
[33]
  residual activity: 100%
[34]
  residual activity: 100%
[35]
  residual activity: 100%
[36]
  residual activity: 80%
[37]
  inhibition: 40.3%
[38]
  residual activity: 36%
[39]
  residual activity: 100%
[40]
  residual activity: 100%
[41]
  inhibition: 8.28%
[42]
  inhibition: 16.4%
[43]
  residual activity: 100%
[44]
  residual activity: 98%
